{"source": "patent US20220313620A1", "about": "“COMPOSITION FOR PREVENTING AND TREATING TAUOPATHIES” (SERVICIO ANDALUZ DE SALUD, priority 2019, published 2022)", "key": {"[1]": {"system": "glycogen synthase kinase-3β (GSK-3β)", "assay": "Hippocampal GSK-3β phosphorylation and total level (western blot) after 10 days of oral administration", "type": "in vivo, Wistar rats", "conditions": "oral 100 mg/Kg for 10 days, hippocampus", "procedure": "(§1) Animal experimental procedures were carried out in accordance with the European Communities directive 2010/63/EU and Spanish legislation (Real Decreto 53/2013). The protocol was approved by the Research and approved by Ethics Committee for Animal Experiments of the University of Malaga, Spain. In accordance with the ARRIVE guidelines, all efforts were made to minimize animal suffering and to reduce the number of animals used per experimental group. Chronic drinking experiments on Wistar rats were performed on 20 male rats. All adult rats, ageing 2 months (≈300 g of body weight), were provided by Charles River Laboratories (Barcelona, Spain). The animals were housed individually under a standard 12 h light-dark cycle in a room with temperature and humidity control. Water and rat chow pellets were provided ad libitum throughout the course of the present study.\nCaromax®-D-Pinitol (3-O-methyl-d-chiro-inositol, DPIN, 98% purity) and Caromax®-D-Chiro-inositol (cis-1,2,3-trans-3,5,6-cyclohexanehexol, DCI) were provided by Euronutra SL (Málaga, Spain). They were dissolved in water to orally daily administration by drinking and/or gavage at dose of 100 mg/Kg of body weight (BW) in a 1 ml/kg of BW volume to Zucker and Wistar rats for 4 weeks (28 days) and 10 days, respectively (FIG. 1). During the drinking treatments, the concentration of inositols in the water were updated considering the daily increase of BW of the rats and the possible loss of water by evaporation.\nBrain extract. Frozen brain samples (17 mg per sample) were homogenized in 1 mL of cold RIPA lysis buffer (50 mM Tris-HCl pH 7.4, 150 mM NaCl, 0.5% NaDOC, 1 mM EDTA, 1% Triton, 0.1% SDS, 1 mM Na3VO4, 1 mM NaF) supplemented with a protease cocktail (Hoffmann-Roche). The suspension was incubated for 2 hours at 4° C., followed by centrifugation at 12,000 rpm for 15 minutes at 4° C. The supernatant was transferred to a new clean centrifuge tube, and Bradford colorimetric method was used to determine the concentration of the total protein. The protein extracts were diluted 1:1 in loading buffer (DTT 2X) and heated for 5 minutes at 99° C. before being subjected to electrophoresis.\nWestern Blot Analysis. The tissue protein (10-15 μg) was subjected to electrophoresis on 4-12% Criterion XT Precast Bis-Tris gels (Bio-Rad, USA) for 30 minutes at 80V and 2 h at 150V. Proteins were transferred onto a 0.2 μm nitrocellulose membrane (Bio-Rad, USA) for 1 h at 80V by wet transfer equipment. The membrane was washed twice for 5 min in TBST (10 mM Tris-HCl, 150 mM NaCl, 0.1% Tween 20, pH 7.6) and blocked with 2% Bovine Serum Albumin-Tris Buffered Saline Tween 20 (BSA-TBST) for one hour at room temperature on a shaker platform. Subsequently, the membrane was incubated with respective primary antibodies overnight at 4° C. diluted in 2% BSA-TBST (Table 2 for additional information). The following day, the membrane was washed three times for 5 min with TBST. An appropriate HRP conjugated rabbit/mouse secondary antibody (Promega) was diluted 1:10000 in 2% BSA-TST and incubated with the membrane for 1 h shaking at room temperature. Finally, the membrane was washed as above and exposed to chemiluminescent reagent (Santa Cruz, Biotechnology Inc.) for 5 min. Stripping/reproving steps were used when necessary. Respective membrane bound protein was then visualized by Chemiluminescence (ChemiDoc Imaging System, Bio-Rad). Bands were quantified by densitometric analysis using ImageJ software (Rasband, WS, ImageJ, US National Institutes of Health, Bethesda, Md., USA). Normalization was performed using a reference protein of the same membrane, the α-Adaptin. The results were expressed as the protein/α-Adaptin ratio or phosphorylated/total protein ratio and normalized to the control group (Y axis represents ‘fold mean of the control values’).\nAll data are expressed as mean±SEM. Statistical analysis was undertaken for studies where each group size was of, at least, n=5. […]"}, "[2]": {"system": "AMP-activated Protein Kinase (AMPK)", "assay": "Hippocampal AMPK (western blot) after 10 days of oral drinking", "type": "in vivo, Wistar rats", "conditions": "oral by drinking 100 mg/Kg for 10 days, hippocampus, FIG. 10", "procedure": "as §1, with “study. […]” for “study.”\nWestern Blot Analysis. […] Bands were quantified by densitometric analysis using ImageJ software (Rasband, WS, ImageJ, US National Institutes of Health, Bethesda, Md., USA). […] The results were expressed as the protein/α-Adaptin ratio or phosphorylated/total protein ratio and normalized to the control group (Y axis represents ‘fold mean of the control values’).\nAll data are expressed as mean±SEM. […]"}, "[3]": {"system": "insulin", "assay": "Plasma insulin (ELISA) and HOMA insulin resistance index after acute oral gavage", "type": "in vivo", "conditions": "adult male Wistar rats", "procedure": "The protocol was approved by the Ethics Committee for Animal Experiments of the University of Malaga.\nD-Pinitol (3-0-methyl-D-chiro-inositol) was generously provided by EURONUTRA SL (https://www.euronutra.com/, Malaga, Spain), in the form of crystalline fine powder (lot: PPN-M0201). For acute treatments, D-Pinitol was dissolved in water to be administered by gavage (orally) at different concentrations (100 mg/Kg and 500 mg/Kg), drug was administered at a volume of 1 ml/kg.\nAfter 18 hours of fasting, D-Pinitol dissolved in water was administered acutely by gavage (100 mg/kg in a first study, and 500 mg/kg in a subsequent study). After administration, the animals were sacrificed in groups at different times (being time 0 the administration of D-Pinitol). For the first study (100 mg/kg), groups of animals were sacrificed at times: 10, 20, 30, 60, 120, 240 and 360 minutes after administration; for the second study (500 mg/kg), animals were sacrificed at times: 60, 120 and 240 minutes after administration. As a control group, a group was administered only with water (by gavage).\nAnimals were anesthetized with sodium pentobarbital (50 mg/Kg, i.p.), blood, brain and liver samples were collected. Blood was centrifuged (2100 g for 8 min, 4° C.) and the plasma kept for further analysis. Liver and brain samples were flash-frozen in liquid N2, then stored at −80° C. until further analysis.\nThe plasma levels of insulin and ghrelin were determined with an enzyme-linked immunosorbent assay (ELISA) method using commercial kits: EMD Millipore Corporation (Billerica, Mass., USA) Cat. #EZRMI-13K and Cat. #EZRGRT-91K, respectively. Glucagon levels in plasma was determined with a Glucagon Enzyme Immunoassay (EIA) Kit: Cat. #RAB0202 Sigma-Aldrich (Saint Louis, Mo., USA). All serum samples were assayed in duplicate within one assay, and results were expressed in terms of the particular standard hormone."}}}
{"smiles": "COC1[C@@H](O)[C@@H](O)C(O)[C@H](O)[C@H]1O", "note": "(stereo partly drawn) [DPIN, (1S,2S,4S,5R)-6-methoxycyclohexane-1,2,3,4,5-pentol]", "values": [{"measurement": "GSK-3β serine-9 phosphorylation", "setting": "[1]; FIG. 9A.1", "value": "no effect"}, {"measurement": "GSK-3β tyrosine-216 phosphorylation", "setting": "[1]; FIG. 9A.2", "value": "no effect"}, {"measurement": "GSK-3β kinase activity (Ser9/Tyr216)", "setting": "[1]; FIG. 9A.3", "value": "neither enhance nor inhibition"}, {"measurement": "kinase activation and total expression of AMPK", "setting": "[2]", "value": "No other changes"}, {"measurement": "insulin release into the blood circulation", "setting": "[3]; oral 100 mg/kg, FIG. 2B", "value": "decreased"}, {"measurement": "insulin resistance measured by the HOMA index", "setting": "[3]; oral 100 mg/kg, FIG. 2C", "value": "reduction"}, {"measurement": "insulin release into the blood circulation", "setting": "[3]; oral 500 mg/kg, FIG. 3B", "value": "decreased"}, {"measurement": "insulin resistance measured by the HOMA index", "setting": "[3]; oral 500 mg/kg, FIG. 3D", "value": "reduction"}]}
